Data reported in PubChem BioAssay (NCI).
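Compound exposure: 48 hours, 5 concentrations, 96-well plates. Abbreviation: GI50, concentration required for 50% inhibition of growth. TGI denotes the concentration required for complete inhibition of growth.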

Key:
Test in all cases: NCI-60 cell line screen, 48 h
[1] = tested on: MDA-MB-468 breast
[2] = tested on: ACHN renal
[3] = tested on: RXF 393 renal
[4] = tested on: KM12 colon
[5] = tested on: SK-MEL-5 melanoma
[6] = tested on: MDA-MB-231 breast
[7] = tested on: TK-10 renal
[8] = tested on: OVCAR-3 ovarian
[9] = tested on: T-47D breast
[10] = tested on: SNB-19 CNS
[11] = tested on: OVCAR-4 ovarian
[12] = tested on: MALME-3M melanoma
[13] = tested on: MCF7 breast
[14] = tested on: UO-31 renal
[15] = tested on: NCI-H23 lung
[16] = tested on: A498 renal
[17] = tested on: SW-620 colon
[18] = tested on: SK-MEL-2 melanoma
[19] = tested on: OVCAR-8 ovarian
[20] = tested on: SK-OV-3 ovarian
[21] = tested on: HS 578T breast
[22] = tested on: 786-0 renal
[23] = tested on: SNB-75 CNS
[24] = tested on: NCI-H226 lung
[25] = tested on: HCT-15 colon
[26] = tested on: EKVX NSCLC
[27] = tested on: OVCAR-5 ovarian
[28] = tested on: HCC-2998 colon
[29] = tested on: DU-145 prostate

O=C(Nc1ccc(OC(F)(F)Cl)cc1)c1cnc(N2CC[C@@H](O)C2)c(-c2ccn[nH]2)c1
GI50 [1]: 4.89 µM
TGI [1]: 23.1 µM

CCSCC1CC(O)(c2ccccc2)C(c2ccccc2)C(c2ccc(F)cc2)O1 (centres undefined)
GI50 [1]: 2.94 µM
TGI [1]: 10.4 µM

C#Cc1ccc(-n2c(/C=C/c3ccc(O)cc3)nc3ncccc3c2=O)cc1
GI50 [1]: 2.31 µM
TGI [1]: 7.08 µM

Cn1ccnc1C(=O)/C=C/C=C/c1ccc(C(=O)Nc2ccc(F)cc2)cc1
GI50 [1]: 1.51 µM
TGI [1]: 10.5 µM

Nc1nc(=S)c2ncn(C3OC(COP(=O)(O)O)C(O)C3O)c2[nH]1 (centres undefined)
GI50 [1]: 0.478 µM
TGI [1]: 6.3 µM

ClCCOCCn1cnc2c(Cl)nc(Cl)nc21
GI50 [1]: 3.16 µM
TGI [1]: 25 µM

COc1cc2nnc3c4cccnc4[nH]c3c2cc1OC
GI50 [1]: 0.225 µM
TGI [1]: 1.22 µM

Cc1cc(Cl)nc(N(CCNc2ccnc3cc(Cl)ccc23)Cc2ccco2)n1
GI50 [1]: 1.62 µM
TGI [1]: 3.46 µM

COc1ccc(-c2cc(/C=C/C(=O)c3ccc(N)cc3)[nH]n2)cc1OC
GI50 [1]: 1.55 µM
TGI [1]: 3.48 µM

CCN(CC)c1ccc2nc3ccc(=[N+](CC)CC)cc-3oc2c1
GI50 [1]: 0.0631 µM
TGI [1]: 0.231 µM

CCCCCC(=O)O[C@]1(C(C)=O)CCC2C3CCC4=CC(=O)CC[C@]4(C)C3CC[C@@]21C (some centres undefined)
GI50 [1]: 1.73 µM
TGI [1]: 6.79 µM

CNCc1ccc(-c2cc(-c3nc(-c4ccc(S(=O)(=O)C(C)C)cc4)cnc3N)on2)cc1
GI50 [1]: 2.26 µM
TGI [1]: 20.3 µM

COc1ccc(-c2nc3ccc(Cc4ccc5nc(-c6ccc(OC)cc6)[nH]c5c4)cc3[nH]2)cc1
GI50 [1]: 0.026 µM
TGI [1]: 0.155 µM

CC(=O)Oc1ccc(C2=Cc3ccc(OC(C)=O)cc3OC2C)cc1 (centres undefined)
GI50 [1]: 5.96 µM
TGI [1]: 51.4 µM

COc1ccccc1C1c2cc3c(cc2OC2(OC)COC(=O)C12)OCO3 (centres undefined)
GI50 [1]: 20.2 µM
TGI [1]: 95.4 µM

Cc1cccc(Cn2cc(CO)c3cnccc32)c1
GI50 [1]: 6.34 µM
TGI [1]: 43.3 µM

Clc1ccc2oc3c(NCCCn4ccnc4)c4ccccc4nc3c2c1
GI50 [1]: 14.7 µM
TGI [1]: 69.2 µM

COc1cc(/C=C/c2cc(/C=C/c3ccc(O)c(OC)c3)n(C(=O)c3ccccc3Br)n2)ccc1O
GI50 [1]: 2.24 µM
TGI [1]: 5.81 µM

CC(C)[C@@H]1CC[C@]2(CO2)[C@@H]2C(=O)OCC(C(=O)O)=C[C@H]21
GI50 [1]: 0.443 µM
TGI [1]: > 27.2 µM

COc1ccc2c(c1)c(/C=N/Nc1ccnc3cc(Cl)ccc13)cn2C
GI50 [1]: 0.217 µM
TGI [1]: 0.456 µM

CCc1ccc(Nc2cc(C)c3ccc(O)cc3n2)cc1
GI50 [1]: 3.57 µM
TGI [1]: 12.8 µM

COc1ccccc1CNCCN1C(=O)c2ccc3c4c(ccc(c24)C1=O)C(=O)N(CCNCc1ccccc1OC)C3=O
GI50 [1]: 0.426 µM
TGI [1]: 0.893 µM

COc1ccccc1Oc1nccc(-c2c(-c3ccc(F)cc3)ncn2C2CCNCC2)n1
GI50 [1]: 3.17 µM
TGI [1]: 14.3 µM

CN1CCN(c2c(F)cc(NC3=C(Cl)C(=O)c4ncccc4C3=O)cc2F)CC1
GI50 [1]: 1.36 µM
TGI [1]: 3.21 µM

COCCN(Cc1ccc(F)cc1)c1ccc(CO)c(Cl)c1
GI50 [1]: 0.0406 µM
TGI [1]: 0.163 µM

COc1ccc(C(O)c2cc3c(N)c(C(=O)Nc4cccc5ccccc45)sc3nc2C)cc1 (centres undefined)
GI50 [1]: 2.64 µM
TGI [1]: > 100 µM

COc1cccc2nc(Nc3cccc(NC(=O)c4ccc(CN5CCCN(C)CC5)c(C(F)(F)F)c4)c3)ccc12
GI50 [2]: 1.87 µM
TGI [2]: 3.62 µM
GI50 [3]: 1.66 µM
TGI [3]: 3.24 µM
GI50 [4]: 2.49 µM
TGI [4]: 6.14 µM
GI50 [5]: 1.71 µM
TGI [5]: 3.08 µM
GI50 [6]: 1.83 µM
TGI [6]: 3.4 µM
GI50 [7]: 4.91 µM
TGI [7]: 19.3 µM
GI50 [8]: 2.14 µM
TGI [8]: 5.45 µM
GI50 [9]: 5.43 µM
TGI [9]: 41.4 µM
GI50 [1]: 1.56 µM
TGI [1]: 2.98 µM
GI50 [10]: 1.72 µM
TGI [10]: 3.17 µM
GI50 [11]: 2.67 µM
TGI [11]: 10.7 µM
GI50 [12]: 1.72 µM
TGI [12]: 3.12 µM
GI50 [13]: 1.59 µM
TGI [13]: 3 µM
GI50 [14]: 1.74 µM
TGI [14]: 3.43 µM
GI50 [15]: 1.68 µM
TGI [15]: 3.07 µM
GI50 [16]: 13.5 µM
TGI [16]: 31.4 µM
GI50 [17]: 1.75 µM
TGI [17]: 3.24 µM
GI50 [18]: 2.15 µM
TGI [18]: 4.93 µM
GI50 [19]: 2.03 µM
TGI [19]: 4.75 µM
GI50 [20]: 4.33 µM
TGI [20]: 21.3 µM
GI50 [21]: 2.46 µM
TGI [21]: 8.09 µM
GI50 [22]: 1.72 µM
TGI [22]: 3.35 µM
GI50 [23]: 1.52 µM
TGI [23]: 7.97 µM
GI50 [24]: 1.94 µM
TGI [24]: 4.65 µM
GI50 [25]: 1.62 µM
TGI [25]: 3.03 µM
GI50 [26]: 1.72 µM
TGI [26]: 3.1 µM
GI50 [27]: 1.71 µM
TGI [27]: 3.29 µM
GI50 [28]: 1.71 µM
TGI [28]: 3.09 µM
GI50 [29]: 2.19 µM
TGI [29]: 4.91 µM

COc1cc(-c2nccc3[nH]c(-c4ccc5cc[nH]c5c4)nc23)cc(OC)c1OC
GI50 [1]: 0.0176 µM
TGI [1]: 1.56 µM

Fc1ccc(NC(c2ccc(F)cc2)C2CCN(CCCCc3ccccc3)CC2)cc1 (centres undefined)
GI50 [1]: 1.72 µM
TGI [1]: 3.43 µM

COc1ccc(/C=C2\CCC/C(=C\c3ccc(OC)c(OC)c3)C2=O)cc1OC
GI50 [1]: 0.94 µM
TGI [1]: 5.47 µM

S=C1SCN(Cc2ccccc2)CN1Cc1ccco1
GI50 [1]: 1.04 µM
TGI [1]: 13.5 µM

CCNC(=O)N1CCc2cc(OC)c(OCCc3ccc(OC)cc3)cc2C1c1ccc(Cl)cc1C (centres undefined)
GI50 [1]: 2.01 µM
TGI [1]: 6.43 µM

COc1ccc(-c2[nH]c3ccc(OC)cc3c2C=C(C#N)C#N)cc1
GI50 [1]: 0.494 µM
TGI [1]: > 100 µM

Cc1cnc(C(=O)NNc2nc3sc4c(c3c(=O)[nH]2)C(C)CCC4)cn1 (centres undefined)
GI50 [1]: 1.81 µM
TGI [1]: 6.08 µM

CCCCS(=O)c1sc2nc(-c3cccs3)cc(-c3ccccc3)c2c1N (centres undefined)
GI50 [1]: 9.93 µM
TGI [1]: 67.3 µM

CC[C@H](C)[C@H](NC(=O)[C@H]1CCCCN1C)C(=O)N(C)[C@H](C[C@@H](OC(C)=O)c1nc(C(=O)NC23CC(C(=O)OC)(C2)C3)cs1)C(C)C
GI50 [1]: 0.000292 µM
TGI [1]: 0.0714 µM

CCC(c1ccccc1)c1noc(CCN(CC)CC)n1 (centres undefined)
GI50 [1]: 2.46 µM
TGI [1]: 8.05 µM

CC(=O)NC1C(O[C@H]2C[C@H]3[C@@H]4CC=C5C[C@@H](O)CC[C@]5(C)[C@H]4CC[C@]3(C)[C@H]2[C@H](C)C(=O)CCC(C)C)OCC(O)C1O (some centres undefined)
GI50 [1]: 3.34 µM
TGI [1]: 10.4 µM

COCCOC1=C(Cl)C(=O)c2ccccc2C1=O
GI50 [1]: 1.59 µM
TGI [1]: 3.22 µM

Cc1cc(Br)c(NC(=O)c2c(-c3c(Cl)cccc3Cl)noc2C)c(Br)c1
GI50 [1]: > 100 µM
TGI [1]: > 100 µM

O=C(COc1ccc(/C=C2\Oc3ccccc3C2=O)cc1)Nc1nc2ccccc2s1
GI50 [1]: 0.487 µM
TGI [1]: 75.2 µM

CCCCCCCCCCCCCCNC(=O)Nc1ccc(Cl)c(Cl)c1
GI50 [1]: 2.82 µM
TGI [1]: 9.82 µM

Nc1nccc(-c2c(-c3ccc(F)cc3)nn3cc(C(F)(F)F)ccc23)n1
GI50 [1]: > 25 µM
TGI [1]: > 25 µM

O=C1c2cc3c(cc2-c2c1c1ccc(Cl)cc1c(=O)n2C[C@H](O)CO)OCO3
GI50 [1]: 0.0174 µM
TGI [1]: 0.0553 µM
